Assay results reported in patent publication US11932850B2, “Cancer chemoprevention with STAT3 blockers” (Jill M. Siegfried, LLC, priority 2018, dated 2024).
Entries after “also recorded” stand apart in the source; their conditions may differ.

Columns and labels:
NNK-induced lung tumors = assay: NNK lung cancer chemoprevention pilot experiment; format: in vivo; details: 5 mg/kg IV 5 days a wk for 18 wks
Procedure: In a pilot experiment, 6 FVB/N mice were given 24 mg NNK (3 mg by ip injection, twice a wk×4 wks), followed by 6 wks rest, then IV treatment of 3 mice with either 5 mg/kg CS3D or CS3M 5 days a wk for 18 wks. […] With CS3M, lungs were filled with multiple invasive adenocarcinomas, while in mice receiving CS3D, tumor burden was reduced over 80%. H&E (hematoxylin and eosin) sections were taken of murine lungs exposed to NNK followed by treatment with CS3M or CS3D for 18 wks. Invasive carcinomas were prominent with CS3M and lacking with CS3D.

[1] = Toxicology studies in mice; format: in vivo; details: repeated doses up to 100 mg/kg
Excerpt: The novel mechanism of action combined with the stability of the circularized STAT3 decoy and its low toxicity are favorable features for clinical application. In all experiments with the STAT3 decoy, activity is compared to a mutant version with a T-A base pair replacing a G-C base pair at position 9, differing by the two nucleotides in the base pair.

[2] = tested on: c-Myc protein in H1975 cells; details: H1975, 3 hr after EGF
Procedure: (§1) c-Myc is a STAT3 target gene that is known to be activated by EGF treatment. To investigate the effects of STAT3 blockade on c-Myc expression, cells were first treated with 10 ng/ml EGF for 1.5 hr (deemed the optimal time to observe increased c-Myc RNA), 24 hr after transfection of the cyclic oligonucleotides. RT-qPCR was used to assess differences in mRNA expression in STAT3 decoy-treated versus mutant decoy-treated cells (FIGS. 5A and 5B). […] Cells were treated 24 hours post-transfection with EGF (10 ng/ml) for 1.5 hr and mRNA was harvested from wild-type (A) and mutant EGFR T790M (B) NSCLC cell lines, and mRNA expression was assessed by RT-qPCR. Relative mRNA expression was normalized to GAPDH mRNA levels as an internal control. Statistical significance was determined as *P<0.05. […] Cells were treated 24 hours post-transfection with EGF (10 ng/ml) for 1.5 hr and mRNA was harvested from mutant EGFR T790M (B) NSCLC cell lines. […] Cells were is treated as in FIGS. 5A and 5B, and 3 hr after EGF treatment, lysates were collected from wild-type 201T (left) and mutant EGFR […] H1975 (right) NSCLC cell lines.

[3] = tested on: c-Myc protein in 201T cells; details: 3 hr after EGF, compared to CS3M or lipofectamine alone
Procedure: as §1

[4] = tested on: STAT1 target genes (IKBKE, IFT2, IFT1, IRF7) and NFκB target genes; details: CS3D compared to CS3M treated cells
Procedure: as §1

201T cells = assay: Soft agar colony forming assay, 201T; format: cell-based, human
Excerpt: 1 hr after treatment with EGF.
Following the transfection protocol described above, cells transfected with either CS3D or CS3M were detached from the plate using Trypsin-EDTA (Life Technologies) and seeded at a density of 2×10^4 cells/well (in a 6-well plate) in soft agar to determine the ability of cells to grow in an anchorage-independent setting. Sea Plaque Agarose (Lonza—Rockland, Maine) was used to prepare 0.8% base agarose layer and a 0.48% upper agarose layer containing the transfected cells. 1 ml of appropriate growth media was added into each well and incubated at growth conditions of 37° C. with 5% CO2. Media was replaced every 3-4 days and colony formation was monitored. After 15-20 days, the media was aspirated, and wells were incubated with crystal violet in 10% formalin for 1 h. Using a dissecting scope, colonies were photographed in a 6-well plate (with 4 quadrants/well) using ImageJ software analysis to automatically count colonies, using 35 pixels as a cut-off.

[5] = biological target: pSTAT3 and total STAT3 in H1975 cells (Homo sapiens, UniProt P40763)
c-Myc mRNA in 201T cells = assay: RT-qPCR of c-Myc mRNA after EGF, 201T; format: cell-based, human; details: single transfection, EGF 10 ng/ml 1.5 hr
[6] = tested on: K-RAS G12D mutation in tumors; details: tumors 20 weeks post treatment, P>0.1
H1975 xenografts = assay: H1975 NSCLC xenograft tumor growth; format: in vivo, nude mice; details: 5 mg/kg/d iv, 5 days per week, compared to CS3M
Procedure: Based on the in vitro effects of CS3D, antitumor effects were evaluated in mice harboring established NSCLC xenografts (10 tumors/group). When tumors reached 200 mm3, mice were given daily intravenous injections (tail vein) of CS3D or CS3M (5 mg/kg/d), 5 days per week, and tumor growth was monitored for 14-20 days. CS3D caused a significant and robust tumor growth inhibition in 201T- and H1975-derived xenografts compared to treatment with CS3M.
FIGS. 7A and 7B show CS3D suppresses NSCLC xenograft tumor growth. Intravenous delivery of CS3D inhibits tumor growth in both wild-type (FIG. 7A, 201T) and mutant EGFR T790M (FIG. 7B, H1975) xenografts. Approximately 1×10^6 cells were inoculated subcutaneously in the flanks of nude mice. Following the development of palpable tumors (about […]), mice were randomized and given daily injections of either CS3D or CS3M (5 mg/kg/day; 10 tumors/group). Experiments were done twice as biological replicates. Tumor volumes were recorded every other day while animal weights were also monitored during the course of the treatment. […]
All studies were approved by the University of Minnesota Institutional Animal Care and Use Committee and were carried out in accordance with institutional guidelines for animal care. […] Volumes were calculated from the formula V=(Length×Width^2)/2. […]

[7] = H1975, IL-6 50 ng/mL 1 hr, compared to CS3M or lipofectamine alone

Chain of pSTAT3 and total STAT3 in H1975 cells (P40763 2-770 limits assumed): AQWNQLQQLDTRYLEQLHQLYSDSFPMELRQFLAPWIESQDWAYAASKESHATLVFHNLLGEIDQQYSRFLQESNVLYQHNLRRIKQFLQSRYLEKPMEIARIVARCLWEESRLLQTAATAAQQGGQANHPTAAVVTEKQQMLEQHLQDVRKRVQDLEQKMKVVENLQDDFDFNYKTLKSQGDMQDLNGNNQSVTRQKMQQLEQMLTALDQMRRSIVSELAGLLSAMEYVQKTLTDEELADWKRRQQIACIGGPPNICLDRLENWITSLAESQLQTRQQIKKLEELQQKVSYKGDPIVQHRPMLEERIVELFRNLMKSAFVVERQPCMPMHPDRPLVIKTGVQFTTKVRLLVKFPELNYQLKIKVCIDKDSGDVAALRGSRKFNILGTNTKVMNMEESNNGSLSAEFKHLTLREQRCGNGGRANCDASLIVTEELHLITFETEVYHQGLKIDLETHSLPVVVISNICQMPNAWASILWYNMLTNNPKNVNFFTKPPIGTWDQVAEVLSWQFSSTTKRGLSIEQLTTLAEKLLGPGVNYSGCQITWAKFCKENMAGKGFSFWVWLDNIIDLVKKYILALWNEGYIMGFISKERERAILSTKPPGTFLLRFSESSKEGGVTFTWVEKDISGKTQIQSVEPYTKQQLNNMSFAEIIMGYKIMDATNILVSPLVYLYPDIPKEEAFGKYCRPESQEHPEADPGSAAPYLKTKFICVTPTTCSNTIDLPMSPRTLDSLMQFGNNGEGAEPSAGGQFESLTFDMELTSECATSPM

With “CS3D (DNA GATTTACGGGAAATGCSCATTTCCC; cyclic decoy with two hexaethylene glycol linkers, further chemistry not given here)” the toxic effects (NNK-induced lung tumors) was “no discernable toxic effects”, the “reduction of tumor burden” value (NNK-induced lung tumors; 24 mg NNK, 6 wks rest, vs CS3M) was “over 80%” and the “toxicology: body weight, organ histology, clinical chemistry” value [1] was “no significant effects on body weight, organ histology, or clinical chemistry; also recorded: no appreciable changes in blood chemistry, weight or organ structure”. The “reduction in c-Myc protein expression” value [2] was 40%, the “reduction in c-Myc protein expression” value [3] was 31% and the “mRNA expression of STAT1 and NFκB target genes” value [4] was “no decrease in mRNA expression level”. For the same substance, the “disruption of anchorage-independent growth” value (201T cells; 300 nM single transfection, at 20 days, 201T, compared to CS3M) was 50%, the “reduction of colony formation in soft agar” value (201T cells; one transfection, 201T (FIG. 4A)) was 55% and the “reduction in nuclear pSTAT3” value [5, 7] was 35%. The “reduction in nuclear total STAT3” value [5, 7] was 35%, the “effect on cytoplasmic pool of total STAT3” value ([5]; H1975, IL-6 stimulated) was “little effect” and the “inhibition in mRNA level of c-Myc” value (c-Myc mRNA in 201T cells) was 50%. The “proportion of tumors positive for K-RAS mutation, CS3D vs CS3M” value [6] was “no significant difference” and the “reduction in tumor growth (tumor volume)” value (H1975 xenografts) was 81.7%.
